Results: publication PMC8191290, “Substrate specificities and reaction kinetics of the yeast oligosaccharyltransferase isoforms” (The Journal of Biological Chemistry, 2021)
Read-outs that look alike come from different tables or passages of the source.

Tests used:
OST3 complex [1] = target: T1, OST3 complex (Saccharomyces cerevisiae, UniProt P39007); test: Turnover of synthetic TAMRA-labeled peptides; type: biochemical; settings: for Turnover after 5 min / Glycopeptide detected / Relative turnover: 0.5 µM OST3 complex, 20 µM peptide; for Turnover after 5 min / Relative turnover: 150 µM LLO C20; for Glycopeptide detected: 150 µM LLO C20, 5 min; for Relative turnover: TAMRA-DANYTK turnover defined as 100 %, 5 min
T1 construct: were purified separately from strains expressing only one type of complex; made in house; host or cells: Saccharomyces cerevisiae, BY4742-derived strain ost6::LEU2MX6 OST4-1D4::kanMX6 YEp352-OST3
Method: (§1) TAMRA-labeled peptides with 5-TAMRA at the N-terminus and an amide group at the C-terminus were synthesized by WatsonBio Sciences. Unlabeled peptides (Table S1) were synthesized by Genscript Corp. and were designed so that the asparagine of the glycosylation sequon was in the middle (except for Peptide 8). Lyophilized peptides were dissolved in dimethyl sulfoxide (DMSO), unless specified otherwise, to a 3 mM stock solution and further diluted in ddH2O for reactions.
(§2) Reactions were performed in a total volume of 10 μl containing the specified amount of TAMRA-labeled peptide, synthetic LLO analog, 10 mM MnCl2, and purified OST after size-exclusion chromatography in purification buffer (50 mM Hepes, pH 7.5, 150 mM NaCl, 1 mM MgCl2, 1 mM MnCl2, 10% (v/v) glycerol, 0.03% (w/v) DDM, and 0.006% (w/v) CHS). The concentration of OST was calculated using the molecular weight of 280 kDa. The reaction mixture was preincubated at 30 °C for 5 min before adding the peptide to start the reaction that proceeded at 30 °C. Time points were taken such that the reaction was in the linear phase. At each time point, 1 μl reaction mixture was taken and the reaction was stopped by dilution in stop solution (0.1% FA in 10% ACN, 10 mM KPO4 pH 8.0) such that the final peptide concentration was 2 μM.
Samples were analyzed by reverse-phase chromatography using a UPLC Dionex UltiMate 3000 with an Accucore 150-C18 100 × 2.1 mm 2.6 μm column (Thermo Fisher Scientific). One microliter sample (2 pmol of peptide) was injected and measured by isocratic elution using a certain proportion of ACN (15% ACN for peptide TAMRA-DANYTK; 20% ACN for peptide TAMRA-YANATS) in 10 mM KPO4, pH 8.0 buffer so that the glycopeptide and peptide are fully separated and elute within 3 min at a constant flow rate of 0.7 ml/min, with a column temperature of 45 °C. The peptide and glycopeptide were detected through TAMRA fluorescence (excitation wavelength: 546 nm; emission wavelength: 579 nm).
The UPLC profiles were analyzed by integrating the peaks corresponding to the glycopeptide and peptide using Chromeleon 7 (Dionex) and calculating the amount of glycopeptide formed using the following equation, as previously described ([43]): [GP]=PeakareaGP/PeakareaP+PeakareaGP×[P] […]
Supp. Table 2. Turnover of synthetic TAMRA-labeled peptides
Peptide Glycopeptide Turnover after 5 min Relative turnover […]
TAMRA, tetramethylrhodamine
Turnover of TAMRA-labeled peptides after 5 min was determined using 0.5 µM OST3 complex, 20 µM indicated peptide and 150 µM LLO C20. Relative turnover compared to TAMRA-DANYTK is given by defining TAMRA-DANYTK turnover as 100 %.

OST3 complex [2] = target: T1, OST3 complex; test: In vitro glycosylation assay, kinetic parameters for acceptor peptides, OST3 complex; type: biochemical; settings: for Km: 10 mM MnCl2, pH 7.5, 30 °C, UPLC TAMRA fluorescence, read-out: KM (apparent); for Km / kcat (apparent): n = 3; for kcat (apparent): 30 °C
Method: Figure 2 In vitro glycosylation assay for OST activity and peptide sequence preferences.A, schematic representation of the in vitro reaction setup for yeast OST activity. The peptide substrate containing the glycosylation sequon N-X-(S/T) is labeled with the TAMRA fluorophore at the N-terminus. Incubation with OST, synthetic LLO, and a divalent metal ion (Mn^2+preferred) results in the transfer of the sugar moiety (two GlcNAcs, blue squares) from the LLO to the fluorescently labeled peptide, yielding a glycopeptide product. B, measurement and analysis of the in vitro assay shown in A. Fluorescently labeled peptide (P) substrate and glycopeptide (GP) product are separated by reverse-phase chromatography using UPLC. The glycopeptide elutes earlier than the peptide and amounts of glycopeptide are quantified at different reaction time points by peak integration. C, quantification of kinetic parameters for synthetic peptide TAMRA-DANYTK. Reactions were performed with 2.8 μg purified extract containing OST3 complex before size-exclusion chromatography (approximately 1 μM OST3 complex), 150 μM LLO C20, and varying concentrations of the peptide. Glycopeptide product was measured by UPLC and turnover rates were determined by linear regression of the initial phase of the reaction and taking into account the enzyme concentration. The mean of three reactions is shown and the data were fitted by nonlinear regression according to the Michaelis–Menten formula (R^2 = 0.9803) using Prism. Error bars indicate standard deviations from the mean (n = 3). D, screening glycosylatable peptides derived from highly glycosylated yeast sequences. Reactions were performed with 0.4 μM purified OST3 complex, 150 μM LLO C20, 25 μM TAMRA-DANYTK, and 25 μM unlabeled competitor peptide. TAMRA-DANYTK glycopeptide product formed after 30 min was measured by UPLC and % inhibition was determined relative to a control reaction containing no unlabeled competitor peptide. E, quantification of kinetic parameters for synthetic peptide TAMRA-YANATS. Reactions were performed with 0.1 μM purified OST3 complex, 100 μM LLO C20, and varying concentrations of the peptide. Turnover rates were determined as in C. The mean of three reactions is shown and the data were fitted by nonlinear regression according to the Michaelis–Menten formula (R^2 = 0.9794) using Prism. Error bars indicate standard deviations from the mean (n = 3). P, phosphate; TAMRA, tetramethylrhodamine.
as §1, §2
Samples were analyzed by reverse-phase chromatography using a UPLC Dionex UltiMate 3000 with an Accucore 150-C18 100 × 2.1 mm 2.6 μm column (Thermo Fisher Scientific). […]

[3] = 0.1 μM purified OST3 complex, 100 μM LLO C20, 10–500 μM peptide

Substance	Turnover after 5 min (OST3 complex [1]) [%]	Glycopeptide detected (OST3 complex [1])	Relative turnover (OST3 complex [1]) [%]	kcat/KM (OST3 complex [2]; 2.8 μg purified extract (approx. 1 μM OST3 complex), 150 μM LLO C20) [min^-1 μM^−s1]	Km (OST3 complex [2]; 2.8 μg purified extract (approx. 1 μM OST3 complex, before SEC), 150 μM LLO C20, 10–400 μM peptide, saturation not reached, listed as TAMRA-DANYTK-NH2) [µM]	Km (OST3 complex [2]; 2.8 μg purified extract (approx. 1 μM OST3 complex, before SEC), 150 μM LLO C20, 10–400 μM peptide, saturation not reached) [µM]	kcat (apparent) (OST3 complex [2]; 2.8 μg purified extract (approx. 1 μM OST3 complex, before SEC), 150 μM LLO C20, 10–400 μM peptide) [s⁻¹]	times faster glycosylation than TAMRA-DANYTK (OST3 complex [1]; OST3 complex, initial turnover, relative to TAMRA-DANYTK) [times]	kcat/KM (OST3 complex [2]; 0.1 μM purified OST3 complex, 100 μM LLO C20) [min^-1 μM^−s1]	Km (OST3 complex [2]; [3]) [µM]	kcat (apparent) (OST3 complex [2]; [3]) [s⁻¹]	specificity relative to TAMRA-DANYTK (OST3 complex [2]; OST3 complex)	fold lower apparent KM (OST3 complex [2]; OST3 complex, relative to TAMRA-DANYTK) [fold]
TAMRA-DANYTK-NH2 [fluorescently labeled hexapeptide TAMRA-DANYTK-NH2 as the acceptor peptide, reference compound]	6	Yes	100	0.02	~200	201 ± 51.3	0.065 ± 0.01	–	–	–	–	–	–
TAMRA-YANATS [shorter version of Peptide 5 of only six amino acid residues (TAMRA-YANATS)]	84	Yes	1400	–	–	–	–	14	0.26	55.6 ± 6.5	0.242 ± 0.012	over ten times more specific	3.5
